These results are taken from patent US20260001928A1 (CORTERIA PHARMACEUTICALS, priority 2022, published 2026).

*1 amine or outer side, *2 acyl side, *3 side chain or, on linkers, in order; H or OH if unused. Where a SMILES comes first, the peptide text is derived from it. Side-chain parts run from the residue outwards. [ ]: non-standard residue; d: D form. The star is where a group is joined. C18 diacid = O=C(O)CCCCCCCCCCCCCCCCC(=O)*; C16 diacid = O=C(O)CCCCCCCCCCCCCCC(=O)*; γGlu = O=C(O)[C@H](CCC(=O)[*:2])N[*:1]; C12 diacid = O=C(O)CCCCCCCCCCC(=O)*; NMeI = CC[C@H](C)[C@H](NC)C(=O)O; αMeL = CC(C)C[C@](C)(N)C(=O)O; Pentanoyl = CCCCC(=O)*; AEEA = NCCOCCOCC(=O)O; Aib = CC(C)(N)C(=O)O; Butyryl = CCCC(=O)* Some results are limits rather than exact numbers.

One assay addresses T1, human CRF2a receptor (Homo sapiens, UniProt Q13324).
T1 construct: expressed in transfected cells; host or cells: TeloHEAC cells
T1 sequence (Q13324 1-411): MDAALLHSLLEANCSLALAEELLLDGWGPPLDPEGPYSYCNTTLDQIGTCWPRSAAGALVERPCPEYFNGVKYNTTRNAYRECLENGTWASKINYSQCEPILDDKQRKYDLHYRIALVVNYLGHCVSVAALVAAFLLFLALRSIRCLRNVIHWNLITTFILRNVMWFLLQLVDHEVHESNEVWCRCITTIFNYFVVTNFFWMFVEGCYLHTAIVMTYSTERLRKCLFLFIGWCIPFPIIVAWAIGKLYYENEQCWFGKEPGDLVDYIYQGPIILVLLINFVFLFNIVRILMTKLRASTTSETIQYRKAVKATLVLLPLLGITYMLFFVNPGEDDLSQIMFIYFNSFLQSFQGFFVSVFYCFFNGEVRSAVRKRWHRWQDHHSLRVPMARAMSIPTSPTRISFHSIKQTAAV
In words: Activity at human CRF2a receptor, cAMP functional assay in TeloHEAC cells. It is filed as cell-based. Particulars: TeloHEAC cells stably expressing human CRF2a receptor, relative to urocortin 2 (100 nM = 100%). The essentials: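 TeloHEAC cells stably expressing human CRF2a (10000 cells/well, suspended in HBSS/20 mM HEPES with 2 mM IBMX) were exposed to compounds for 30 min at 37 °C. cAMP was read as the 665/620 nm fluorescence ratio after 1 h at room temperature. EC50 was derived relative to 100 nM urocortin 2, set as 100%.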

Another assay deals with T2, CFR1R receptor (Homo sapiens, UniProt P34998).
T2 construct: host or cells: CHO-K1 (clone 2)
T2 sequence (P34998 24-415): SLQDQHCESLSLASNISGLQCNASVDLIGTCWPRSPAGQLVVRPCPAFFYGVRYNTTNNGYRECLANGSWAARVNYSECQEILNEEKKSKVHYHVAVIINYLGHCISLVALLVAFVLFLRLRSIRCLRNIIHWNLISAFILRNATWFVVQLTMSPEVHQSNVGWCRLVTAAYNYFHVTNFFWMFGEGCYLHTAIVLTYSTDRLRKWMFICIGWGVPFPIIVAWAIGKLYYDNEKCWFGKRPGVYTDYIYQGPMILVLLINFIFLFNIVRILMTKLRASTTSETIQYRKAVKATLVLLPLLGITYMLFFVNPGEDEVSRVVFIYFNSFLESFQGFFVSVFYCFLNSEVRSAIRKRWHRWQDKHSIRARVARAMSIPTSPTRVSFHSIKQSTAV
Put plainly: Activity at anti-target CFR1R receptor, cAMP assay in CRF1R-overexpression CHO-K1 cells. The format is cell-based. Particulars: 100% = Sauvagine at 100 nM; for EC50: cAMP. The essentials:
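cAMP readout in CRF1R-overexpressing CHO-K1 cells (clone 2), run as for the TeloHAEC assay at 4000 cells/well final. Cells came from cryopreserved banks. Sauvagine at 100 nM defined 100% activation.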
In general terms: Cyclic AMP is a second messenger, typically raised through Gs and lowered through Gi signalling.

Broadly, the EC50 is the midpoint of the concentration-response curve. Lower therefore signals higher potency in that assay. `CCCCC(=O)N[C@H](C(=O)N[C@@H](CC(C)C)C(=O)N[C@@H](CO)C(=O)N[C@@H](CC(C)C)C(=O)N[C@@H](CC(=O)O)C(=O)N[C@@H](C(=O)N1CCC[C@H]1C(=O)N[C@H](C(=O)N[C@@H](CCCCN)C(=O)N[C@@H](CC(C)C)C(=O)N[C@@H](CCCCNC(=O)COCCOCCNC(=O)COCCOCCNC(=O)CC[C@H](NC(=O)CCCCCCCCCCCCCCCCC(=O)O)C(=O)O)C(=O)N[C@@H](CCCCN)C(=O)N[C@H](C(=O)N[C@@H](CC(C)C)C(=O)N[C@@H](CC(C)C)C(=O)N[C@@H](CCC(=O)O)C(=O)N[C@@H](CCC(N)=O)C(=O)N[C@@H](CCC(=O)O)C(=O)N[C@@H](CCCCN)C(=O)N[C@@H](CCC(N)=O)C(=O)N[C@@H](CCCCN)C(=O)N[C@@H](CCCCN)C(=O)N[C@@H](CCC(N)=O)C(=O)N[C@@H](CCCNC(=N)N)C(=O)N[C@@H](CCC(=O)O)C(=O)N[C@@H](CCC(N)=O)C(=O)N[C@@H](C)C(=O)N[C@@H](CCC(=O)O)C(=O)N[C@H](C(=O)N[C@@H](CC(N)=O)C(=O)N[C@@H](C)C(=O)N[C@@H](CCC(N)=O)C(=O)N[C@H](C(=O)N[C@@H](CC(C)C)C(=O)N[C@@H](C)C(=O)N[C@@H](CCC(N)=O)C(=O)N[C@H](C(N)=O)C(C)C)[C@@H](C)CC)[C@@H](C)O)[C@@H](C)CC)[C@@H](C)CC)C(C)C)C(C)C` [compound 122] (Pentanoyl-VLSLD[dV]PIKLK([AEEA-AEEA-γGlu-C18 diacid])KILLEQEKQKKQREQAETNAQILAQV-NH2) displayed a concentration giving a half-maximal response (EC50) on human CRF2a receptor of 0.67 nM. In addition, on CFR1R receptor, the “Emax (% I)” value was determined as 5 % I and the EC50 is more than 250 nM.
On to `CC[C@H](C)[C@H](NC)C(=O)N[C@H](C(=O)N[C@@H](CC(C)C)C(=O)N[C@@H](CO)C(=O)N[C@@H](CC(C)C)C(=O)N[C@@H](CC(=O)O)C(=O)N[C@@H](C(=O)N1CCC[C@H]1C(=O)N[C@H](C(=O)N[C@@H](CCCCN)C(=O)N[C@@](C)(CC(C)C)C(=O)N[C@@H](CCCCNC(=O)CC[C@H](NC(=O)CCCCCCCCCCCCCCC(=O)O)C(=O)O)C(=O)N[C@@H](CCCCN)C(=O)N[C@H](C(=O)N[C@@H](CC(C)C)C(=O)N[C@@H](CC(C)C)C(=O)N[C@@H](CCC(=O)O)C(=O)N[C@@H](CCC(N)=O)C(=O)N[C@@H](CCC(=O)O)C(=O)N[C@@H](CCCCN)C(=O)N[C@@H](CCC(N)=O)C(=O)N[C@@H](CCCCN)C(=O)N[C@@H](CCCCN)C(=O)N[C@@H](CCC(N)=O)C(=O)N[C@@H](CCCNC(=N)N)C(=O)N[C@@H](CCC(=O)O)C(=O)N[C@@H](CCC(N)=O)C(=O)N[C@@H](C)C(=O)N[C@@H](CCC(=O)O)C(=O)N[C@H](C(=O)N[C@@H](CC(N)=O)C(=O)NC(C)(C)C(=O)N[C@@H](CCC(N)=O)C(=O)N[C@H](C(=O)N[C@@H](CC(C)C)C(=O)N[C@@H](C)C(=O)N[C@@H](CCC(N)=O)C(=O)N[C@H](C(N)=O)C(C)C)[C@@H](C)CC)[C@@H](C)O)[C@@H](C)CC)[C@@H](C)CC)C(C)C)C(C)C` [compound 65] (H-[NMeI]VLSLD[dV]PIK[αMeL]K([γGlu-C16 diacid])KILLEQEKQKKQREQAETN[Aib]QILAQV-NH2), for which the EC50 on human CRF2a receptor stood at 0.1 nM. Also, at CFR1R receptor, the “Emax (% I)” value was 10 % I and the EC50 was more than 250 nM.
With `CCCC(=O)N[C@H](C(=O)N[C@@H](CC(C)C)C(=O)N[C@@H](CO)C(=O)N[C@@H](CC(C)C)C(=O)N[C@@H](CC(=O)O)C(=O)N[C@H](C(=O)N1CCC[C@H]1C(=O)N[C@H](C(=O)N[C@@H](CCCCN)C(=O)N[C@@H](CC(C)C)C(=O)N[C@@H](CCCCNC(=O)COCCOCCNC(=O)COCCOCCNC(=O)CC[C@H](NC(=O)CCCCCCCCCCCCCCCCC(=O)O)C(=O)O)C(=O)N[C@@H](CCCCN)C(=O)N[C@H](C(=O)N[C@@H](CC(C)C)C(=O)N[C@@H](CC(C)C)C(=O)N[C@@H](CCC(=O)O)C(=O)N[C@@H](CCC(N)=O)C(=O)N[C@@H](CCC(=O)O)C(=O)N[C@@H](CCCCN)C(=O)N[C@@H](CCC(N)=O)C(=O)N[C@@H](CCCCN)C(=O)N[C@@H](CCCCN)C(=O)N[C@@H](CCC(N)=O)C(=O)N[C@@H](CCCNC(=N)N)C(=O)N[C@@H](CCC(=O)O)C(=O)N[C@@H](CCC(N)=O)C(=O)N[C@@H](C)C(=O)N[C@@H](CCC(=O)O)C(=O)N[C@H](C(=O)N[C@@H](CC(N)=O)C(=O)N[C@@H](CCCCN)C(=O)N[C@@H](CCC(N)=O)C(=O)N[C@H](C(=O)N[C@@H](CC(C)C)C(=O)N[C@@H](C)C(=O)N[C@@H](CCC(N)=O)C(=O)N[C@H](C(N)=O)C(C)C)[C@@H](C)CC)[C@@H](C)O)[C@@H](C)CC)[C@@H](C)CC)C(C)C)C(C)C` [compound 95] (Butyryl-VLSLDVPIKLK([AEEA-AEEA-γGlu-C18 diacid])KILLEQEKQKKQREQAETNKQILAQV-NH2), the EC50 was 0.76 nM at human CRF2a receptor and more than 250 nM on CFR1R receptor. Besides, at CFR1R receptor, the “Emax (% I)” value came to 5 % I.
Taken in the same sequence, the figures for `CC[C@H](C)[C@H](NC)C(=O)N[C@H](C(=O)N[C@@H](CC(C)C)C(=O)N[C@@H](CO)C(=O)N[C@@H](CC(C)C)C(=O)N[C@@H](CC(=O)O)C(=O)N[C@@H](C(=O)N1CCC[C@H]1C(=O)N[C@H](C(=O)N[C@@H](CCCCN)C(=O)N[C@@H](CC(C)C)C(=O)N[C@@H](CCCCNC(=O)CC[C@H](NC(=O)CCCCCCCCCCC(=O)O)C(=O)O)C(=O)N[C@@H](CCCCN)C(=O)N[C@H](C(=O)N[C@@H](CC(C)C)C(=O)N[C@@H](CC(C)C)C(=O)N[C@@H](CCC(=O)O)C(=O)N[C@@H](CCC(N)=O)C(=O)N[C@@H](CCC(=O)O)C(=O)N[C@@H](CCCCN)C(=O)N[C@@H](CCC(N)=O)C(=O)N[C@@H](CCCCN)C(=O)N[C@@H](CCCCN)C(=O)N[C@@H](CCC(N)=O)C(=O)N[C@@H](CCCNC(=N)N)C(=O)N[C@@H](CCC(=O)O)C(=O)N[C@@H](CCC(N)=O)C(=O)N[C@@H](C)C(=O)N[C@@H](CCC(=O)O)C(=O)N[C@H](C(=O)N[C@@H](CC(N)=O)C(=O)NC(C)(C)C(=O)N[C@@H](CCC(N)=O)C(=O)N[C@H](C(=O)N[C@@H](CC(C)C)C(=O)N[C@@H](C)C(=O)N[C@@H](CCC(N)=O)C(=O)N[C@H](C(N)=O)C(C)C)[C@@H](C)CC)[C@@H](C)O)[C@@H](C)CC)[C@@H](C)CC)C(C)C)C(C)C` [compound 186] (H-[NMeI]VLSLD[dV]PIKLK([γGlu-C12 diacid])KILLEQEKQKKQREQAETN[Aib]QILAQV-NH2) were 0.79 nM, more than 250 nM and 2 % I.
The matching figures for `CC[C@H](C)[C@H](N)C(=O)N[C@H](C(=O)N[C@@H](CC(C)C)C(=O)N[C@@H](CO)C(=O)N[C@@H](CC(C)C)C(=O)N[C@@H](CC(=O)O)C(=O)N[C@H](C(=O)N1CCC[C@H]1C(=O)N[C@H](C(=O)N[C@@H](CCCCN)C(=O)N[C@@](C)(CC(C)C)C(=O)N[C@@H](CCCCNC(=O)CC[C@H](NC(=O)CCCCCCCCCCCCCCC(=O)O)C(=O)O)C(=O)N[C@@H](CCCCN)C(=O)N[C@H](C(=O)N[C@@H](CC(C)C)C(=O)N[C@@H](CC(C)C)C(=O)N[C@@H](CCC(=O)O)C(=O)N[C@@H](CCC(N)=O)C(=O)N[C@@H](CCC(=O)O)C(=O)N[C@@H](CCCCN)C(=O)N[C@@H](CCC(N)=O)C(=O)N[C@@H](CCCCN)C(=O)N[C@@H](CCCCN)C(=O)N[C@@H](CCC(N)=O)C(=O)N[C@@H](CCCNC(=N)N)C(=O)N[C@@H](CCC(=O)O)C(=O)N[C@@H](CCC(N)=O)C(=O)N[C@@H](C)C(=O)N[C@@H](CCC(=O)O)C(=O)N[C@H](C(=O)N[C@@H](CC(N)=O)C(=O)NC(C)(C)C(=O)N[C@@H](CCC(N)=O)C(=O)N[C@H](C(=O)N[C@@H](CC(C)C)C(=O)N[C@@H](C)C(=O)N[C@@H](CCC(N)=O)C(=O)N[C@H](C(N)=O)C(C)C)[C@@H](C)CC)[C@@H](C)O)[C@@H](C)CC)[C@@H](C)CC)C(C)C)C(C)C` [compound 38] (H-IVLSLDVPIK[αMeL]K([γGlu-C16 diacid])KILLEQEKQKKQREQAETN[Aib]QILAQV-NH2): 0.49 nM, more than 250 nM and 6 % I.
